Source: patent publication US11389411B2, “Pharmaceutical composition, containing NM23 activator, for inhibiting cancer metastasis” (EWHA UNIVERSITY—INDUSTRY COLLABORATION FOUNDATION, priority 2017, dated 2022)
Like-named read-outs stand apart in the source and are kept apart here.

Legend:
Nm23-H1 [1] = target: T1, Nm23-H1 (Homo sapiens, UniProt P15531); experiment: NDPK assay with recombinant Nm23-H1; type: biochemical; details: for Relative NDPK activity (±S.D): relative to a DMSO-treated group (DMSO = 1)
T1 sequence (P15531 whole entry): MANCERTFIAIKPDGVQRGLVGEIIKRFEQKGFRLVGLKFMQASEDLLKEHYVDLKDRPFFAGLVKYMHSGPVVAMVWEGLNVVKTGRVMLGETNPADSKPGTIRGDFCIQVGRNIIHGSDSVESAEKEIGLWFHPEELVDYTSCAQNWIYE
Experimental: (§1) 5 ng of recombinant Nm23-H1 was incubated with 5 μM ADP and a test substance (the compound of Formula 2-1, 3-1 or 4-1) in NDPK assay buffer (20 mM HEPES, 3 mM MgCl2) at mom temperature for 1 minute, and cell-based NDPK assay was performed. A cell lysate obtained from 5,000K MDA-MB-231 cells lysed with a protease inhibitor cocktail and an NDPK assay buffer was centrifuged at 8,000 rpm for 10 minutes at 4° C. 40 μL of the lysate was incubated with the test substance for 5 minutes, and then 50 μM UDP was added thereto and reacted with NDPK. ATP consumption was assessed by an ATP determination kit (Molecular probe, USA).

Nm23-H1 [2] = target: T1, Nm23-H1; experiment: Surface plasmon resonance analysis of interaction with immobilized Nm23-H1; type: binding; details: SPR, 25° C.; for Kd: calculated Kd/Ka; for kon: read-out: Ka
Experimental: The interaction between the compound of Formula 2-1 and Nm23-H1 was analyzed using a surface plasmon resonance instrument (SR7500 DC, Reichert Inc., NY) at 25° C.
Nm23-H1 (1 mg/ml) in 10 mM S.A buffer (pH 4.5) was immobilized using the standard amino coupling at 20 μL/min for 10 minutes on a carboxymethyl dextran hydrogel (CMDH) surface sensor chip (Reichert Technologies, NY) until saturation was achieved.
Different concentrations of the compound of Formula 2-1 (10-160 μM) in binding buffer (10 mM HEPES, pH 7.4, 100 mM NaCl, 1 mM MgCl2, and with or without 2 mM ATP) were allowed to flow over the immobilized Nm23-H1 (approximately 8200 RU) at a rate of 30 μL/min.
The sensor surface was regenerated after each association and dissociation cycle by injecting 2M NaCl for 1 min. Sensorgrams were fitted to a simple 1:1 Langmuir interaction model (A+B⇄AB) using data analysis program Scrubber 2.0 (BioLogic Sofware, Australia, and Kaleida Graph Sofware, Australia).
KD is a value obtained by calculating Kd/Ka.

MDA-MB-231 cells [3] = experiment: Cell-based NDPK assay (MDA-MB-231 cell lysate); details: FIG. 3C, MDA-MB-231 lysate, concentration dependence
Experimental: as §1

Nm23-H2 = Nm23-H2 (Homo sapiens, UniProt P22392); experiment: NDPK activity assay on Nm23-H2; type: biochemical; details: FIG. 3D
Chain of Nm23-H2 (P22392 whole entry): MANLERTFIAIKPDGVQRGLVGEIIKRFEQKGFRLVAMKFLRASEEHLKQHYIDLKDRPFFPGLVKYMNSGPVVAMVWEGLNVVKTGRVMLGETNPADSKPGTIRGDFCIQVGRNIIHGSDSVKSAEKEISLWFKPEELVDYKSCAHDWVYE

Nm23-H1 [4] = target: T1, Nm23-H1; experiment: Isothermal titration calorimetry; type: binding; details: FIG. 4, with and without ATP
Experimental: An ITC experiment was performed using the ITC200 system (Malvern Inc.), and the data were analyzed using ORIGIN 7.0 program. The concentration of Nm23-H1 protein in the cells was 30 μM, and the syringe contained 300 μM of the activator or 1 mM ATP. The activator was prepared at a concentration of 50 mM in DMSO (dimethyl sulfoxide) and stored at −20° C. ITC buffer contained (pH 7.5) 150 mM NaCl, 3 mM MgCl2 and 20 mM HEPES in up to 2% DMSO. For titration, each 2 μL was injected 20 times 25° C. at intervals of 150 seconds. No evidence of DMSO binding at the nucleotide binding site was observed. The experimental raw data were corrected by subtracting the value for the buffer, and then fitted to a single site binding model. The titration data were fitted using a nonlinear least squares curve-fitting algorithm with three floating variables: stoichiometry (N), dissociation constant (KD), and change of enthalpy of interaction.

MDA-MB-231 cells [5] = experiment: Immunofluorescence analysis (F-actin, confocal microscopy); type: cell-based; details: FIG. 6A
Experimental: MDA-MB-231 cells were grown on the Secureslip™ (Sigma) cell culture glass cover slip to a confluence of 50 to 70%, and incubated in the presence or absence of the compound of Formula 2-1 for various periods of time. The cells were gently washed with cold HBSS, and then fixed with 4% paraformaldehyde-containing HBSS in RBS for 10 minutes. After washing with HBSS, permeabilization with 0.1% Triton X-100 was performed for 10 minutes at mom temperature. After washing twice with HBSS, the cells were blocked with HBSS containing 3% BSA, 0.2% Tween 20 and 0.2% gelatin at room temperature for 1 hour, and incubated with primary antibody at mom temperature for 1 hour. Then, the cells were incubated with fluorochrome-conjugated species-specific secondary antibodies for 1 hour.
All the antibodies were diluted with 1% BSA-containing HBSS. Coverslips were mounted with anti-fading solution, and viewed using a ×63 objective lens of an LSM510 META (Zeiss) laser scanning confocal microscope.

Rac1 = Rac1 activity assay (active Rac1 pulldown); type: cell-based
Experimental: MDA-MB-231 cells were grown in a 100 mm dish and treated with the compound of Formula 2-1 or 0.05% DMSO at an indicated concentration for 16 hours. Active Rac1 pulldown assays were performed according to the manufacturer's instructions (Termo Fisher Scientifc).

MDA-MB-231 cells [6] = experiment: Invasion assay and transwell migration assay in MDA-MB-231 cells; type: cell-based
Experimental: (§2) When cells reached a confluence of 70%, the cells were treated with the compound of Formula 2-1 for 16 hours. 1×10^5 cells were suspended in PBS-free medium and added onto a Boyden chamber membrane. 10% PBS-containing culture was added to the bottom of the membrane. The chamber was incubated at 37° C. under 5% CO2 for 4 hours. The migrated cells were fixed and stained with crystal violet/methanol. The cells were photographed, and the migrated cells were counted and normalized to control cells.

A549 cells = experiment: Transwell migration and matrigel invasion of A549 cells; type: cell-based; details: FIG. 7B
Experimental: as §2

MDA-MB-231 luc cells = experiment: Breast cancer metastasis model (MDA-MB-231 luc cells in mammary fat pad); type: in vivo, nude mice
From the text: In order to confirm the metastasis suppressing activity of the compound of Formula 2-1 according to the present disclosure in an actual animal model, MDA-MB-231 luc cells were applied to a breast cancer metastasis model.

[7] = FIG. 7A, MDA-MB-231 cells, different concentrations

Structure (SMILES): COc1ccc(/C=C/[C@H]2CCCCC2c2ccc(OC)c(OC)c2)cc1OC (some centres unmarked) [Formula 4-1]
- Relative NDPK activity (±S.D) (Nm23-H1 [1]): 2.41 (±0.29)

Structure (SMILES): COc1ccc(/C=C/c2ccccc2-c2ccc(OC)c(OC)c2)cc1OC [Formula 3-1]
- Relative NDPK activity (±S.D) (Nm23-H1 [1]): 4.11 (±0.16)

Structure (SMILES): COc1ccc(/C=C/[C@H]2CCC=C[C@@H]2c2ccc(OC)c(OC)c2)cc1OC [Formula 2-1]
- Kd (Nm23-H1 [2]; 2 nM ATP): 1.49 ± 0.03 µM
- kon (Nm23-H1 [2]; 2 nM ATP): 71 ± 1 M⁻¹ s⁻¹
- Kd (Nm23-H1 [2]; without ATP): 17.9 ± 0.2 µM
- kon (Nm23-H1 [2]; without ATP): 78 ± 1 M⁻¹ s⁻¹
- NDPK activity of Nm23-H1 (Nm23-H1 [1]; FIG. 3A, concentration dependence): increased depending on the concentration
- V0, Km of the enzyme (NDPK activity depending on the concentration of UDP) (Nm23-H1 [1]; FIG. 3B): Km-type activity similar to that of a conventional enzyme activator
- Relative NDPK activity (±S.D) (Nm23-H1 [1]): 4.04 (±0.13)
- cell-based NDPK activity (MDA-MB-231 cells [3]): increased depending on the concentration
- NDPK activity on Nm23-H2 (Nm23-H2): showed the same activity
- direct interaction with Nm23-H1 (ITC) (Nm23-H1 [4]): occurred and was further enhanced in the presence of ATP
- change of F-actin / cell morphology (MDA-MB-231 cells [5]): ruffles decreased and intercellular contact increased
- activity of Rac1 (Rac1; FIG. 6B, MDA-MB-231 cells, 16 hours): reduced the activity of Rac1 in a concentration-dependent manner
- effect on Rac1 activity after knockdown of Nm23-H1 (Rac1; FIGS. 6C and 6D): abolished by knockdown of Nm23-H1
- matrigel invasion (MDA-MB-231 cells [6]; [7]): reduced
- transwell migration (MDA-MB-231 cells [6]; [7]): reduced
- effect on migration/invasion after knockdown of Nm23-H1 and Nm23-H2 (MDA-MB-231 cells [6]; FIG. 7C): reduced by knockdown of Nm23-H1 and Nm23-H2
- matrigel invasion (A549 cells): reduced
- transwell migration (A549 cells): reduced
- metastasis of the cells to the lung (MDA-MB-231 luc cells; FIG. 8, 10 mg/kg daily, 4 weeks): decreased
- volume of the tumor (MDA-MB-231 luc cells; FIG. 9, 10 mg/kg daily): decreased
- cells that metastasized to the lung (MDA-MB-231 luc cells; FIG. 10, 10 mg/kg daily): statistically significantly decreased
